These results are taken from patent US5439892A, “Dextrin sulfates as anti HIV-1 agents and composition thereof” (ML Laboratories, priority 1990, dated 1995).

Like-named read-outs stand apart in the source and are kept apart here.

In series [1] the test system is HIV-1 (RF). As to the kind of experiment: microbe, parasite or virus in culture. Format: cell-based. To be noted: for decrease in infectivity titre: RF. How it is done: The human T-leukamic cell line C8166 was grown in RPMI 1640 with 10% FCS.
Various strains of HIV-1 (RF. IIIB, CBL-4, Z84 and Z129) were produced in chronically infected H9 cells. A five-fold excess of uninfected H9 cells was added to the culture five days prior to harvesting the supernatant which is clarified by centrifugation and stored in liquid nitrogen.
Induction of cytopathic effects on CD4^+ C8166 by HIV was assayed by multi-nucleated giant cell formation (syncytia).
(§1) HIV-1 (RF) was titrated in 10-fold dilutions onto C8166 cells in the presence of varying concentrations of drug. […] The figures in the table represent the logarithm to the base 10 of the figure actually determined. For instance, a figure of -6 in the table represents a determined result of 10^-6.

Series [2] concerns HIV-1 (RF). It counts as cell-based.
From the text: as §1

The next series concerns HIV-1 IIIB. Put plainly: decrease in infectivity titre in C8166 cells, HIV-1 IIIB. The following applies: for decrease in infectivity titre: IIIB, C8166 cells. It counts as cell-based.
For a further series, the system named is HIV-1 CBL-4. Put plainly: decrease in infectivity titre in C8166 cells, HIV-1 CBL-4. It counts as cell-based. To be noted: for decrease in infectivity titre: CBL-4, C8166 cells.
Series [3] in a line: toxicity: cell viability by [3H]-thymidine uptake in PHA-stimulated human PBL. Format: cell-based. The following applies: human, pha-stimulated pbl, 3 days, mean of quadruplicate, read-out: Thymidine uptake (% of control with no drug). How it is done: (§2) Normal human peripheral blood lymphocytes (PBL) were fractionated on Ficoll-Hypaque (Pharmacia Chemicals, Uppsala, Sweden) from venous blood collected in preservative-free heparin. They were mitogenetically stimulated with phytohaemaglutinin (PHA) (1 ug/ml) for 3 days and maintained in the medium RPMI 1640 supplemented by 20% foetal calf serum (FCS)+interleukin-2 (IL2) ([…]).
(§3) The relative toxicities of the materials tested in example 4 were evaluated by reference to cell viability in the presence of the drugs as measured by the relative uptake of [^3 H]- thymidine. Human PBL (10^6 cells/well) in 96 microtitre plates was stimulated with PHA in the presence of increasing concentration of drug for 3 days. Following a 5 hour probe with [^3 H]- thymidine (0.5 uCi/well), the cells were harvested and counted. The results shown represent the mean of quadruplicate experiments and are presented as the percentage incorporation of [^3 H]-thymidine in the presence of drug, compared to control experiments without drug.

The subject of another series is Human PBL. The series is described as above. It counts as cell-based. The following applies: around 200 ug/ml. How it is done:
as §2, §3

The next series deals with IIIb. As to the kind of experiment: minimum concentration inhibiting syncytia formation in M8166 JH11 cells, IIIb. Format: cell-based, HIV-1. The following applies: 10^3 TCID. How it is done: (§4) 50 ul samples of dextran sulphate and of the 2-, 3- and 6-sulphate derivatives of dextrin of Examples 3, 1 and 2 respectively were pre-incubated at 37° C. onto duplicate cultures of 4×10^5M8166 JH11 cells per ml (50 ul) at final concentrations of […] for one hour.

The next series deals with RF. Put plainly: minimum concentration inhibiting syncytia formation in M8166 JH11 cells, RF. Format: cell-based, HIV-1. The following applies: for inhibitory concentration (minimum concentration at which syncytia formation was <10% that of controls): RF, 10^3 TCID, M8166 JH11 cells. How it is done:
as §4

A further series has as its system RUT. Put plainly: minimum concentration inhibiting syncytia formation in M8166 JH11 cells, RUT. Format: cell-based, HIV-1. The following applies: 10^2 TCID. How it is done: as §4
The next series relates to CBL20. Put plainly: minimum concentration inhibiting syncytia formation in M8166 JH11 cells, CBL20. Format: cell-based, HIV-1. The following applies: 10^3 TCID. How it is done:
as §4

Another series concerns Bovine Thrombin. As to the kind of experiment: anti-coagulant activity: clot formation time of pooled normal plasma after bovine thrombin. Format: biochemical. To be noted: comparison among dextrin sulphates. How it is done:
The materials to be tested were each dissolved in veronal buffer to a concentration of 1 mg/ml=1000 ug/ml and a further dilution of 100 ug/ml was made by a 1:10 dilution in veronal buffer. Pooled normal plasma (1 ml) was then placed into each of nine plastic tubes. The solutions containing the materials to be tested were then added to the plasma to achieve a range of final concentrations from 1-300 ug/ml, in each case the volume being made up to 1.5 ml with veronal buffer. The resultant mixtures were incubated at 37° C. for 30 minutes, following which two 0.2 ml aliquots were extracted from each sample into glass tubes (Samples A and B), and 0.1 ml 7 U Bovine Thrombin was added and clot formation timed.

The subject of series [4] is HIV-1. Put plainly: inhibition of syncytia formation, overall over IIIb, RF, RUT, CBL20. Format: cell-based. The following applies: compared with dextran sulphate (MW 8,000) and dextrin 3-sulphate. How it is done:
as §4

Series [5] has as its system HIV-1. As to the kind of experiment: activity against HIV-1 virus (general statement). The following applies: comparison among dextrin sulphates.
The mark [6] stands for this setting: 0.1 ug/ml, HIV-1 (RF), C8166 cells.
The mark [7] stands for this setting: 1.0 ug/ml, HIV-1 (RF), C8166 cells.
[8] abbreviates: 10 ug/ml, HIV-1 (RF), C8166 cells.
[9] abbreviates: 100 ug/ml, HIV-1 (RF), C8166 cells.
[10] abbreviates: Human immunodeficiency virus 1, C8166, read-out: decrease in infectivity titre.
The mark [11] stands for this setting: Human immunodeficiency virus 1, IIIB, C8166, read-out: decrease in infectivity titre.

For `Cc1cn([C@H]2C[C@H](N=[N+]=[N-])[C@@H](CO)O2)c(=O)[nH]c1=O` [AZT, zidovidine], the “Final dilution of the virus at which syncytia are produced (logarithm to the base 10)” value (“Final dilution … (logarithm to the base 10)” below) is -4 with HIV-1 (RF) [1] (setting [6]), -3.5 in the series on HIV-1 (RF) [1] (setting [7]), -3 in the series with HIV-1 (RF) [1] (setting [8]) and -3 in the series with HIV-1 (RF) [1] (setting [9]). Also, the log reduction at 10 µg/mL in the series on HIV-1 (RF) [1] (setting [10]) was 3; with HIV-1 (RF) [1] (Human immunodeficiency virus 1, C8166, read-out: reduction of the infectious titre), 3; in the series with HIV-1 IIIB (setting [11]), 4; in the series on HIV-1 CBL-4 (setting [10]) it was 4. Further, the log reduction at 50 µg/mL in the series with HIV-1 (RF) [1] (setting [10]) stood at 3; in the series with HIV-1 IIIB (setting [11]), 4; in the series with HIV-1 CBL-4 (setting [10]), 4. The log reduction at 1 µg/mL in the series with HIV-1 (RF) [1] (Human immunodeficiency virus 1, C8166, read-out: inhibition (reduction of the infectious titre)) was found to be 2.5. Moreover, the “Inhibition of HIV-1 (RF), live cell (C8166) reduction of MTT, estimated visually” value with HIV-1 (RF) [2] (0.1 ug/ml), in the series on HIV-1 (RF) [2] (1.0 ug/ml) and in the series on HIV-1 (RF) [2] (10 ug/ml) was “-” in each case. Further, the viability at 72 h in [3] (5 ug/ml) turned out to be 20%; in series [3] (10 ug/ml), 15%; in [3] (25 ug/ml) it was 5%; in [3] (50 ug/ml), 2%; in series [3] (71 ug/ml), 1%; in series [3] (100 ug/ml) it was 1%. For the same compound, the viability at 72 h in series [3] (200 ug/ml) stood at 0%. In the series with Human PBL, the toxicity in words result is recorded as “very highly toxic”.

In the case of dextrin 6-sulphate, the “inhibitory concentration (minimum concentration at which syncytia formation was <10% that of controls)” value is 5 µg/µL in the series on IIIb, 5 µg/µL in the series on RF, 50 µg/µL in the series on RUT and above 50 µg/µL in the series on CBL20. In addition, the “anti-coagulant activity in words” value with Bovine Thrombin is listed as “greater anti-coagulant activity”. Besides, the overall effectiveness entry with HIV-1 [4] is “overall greater effectiveness”.

Turning to Dextran, the “Final dilution … (logarithm to the base 10)” value in the series on HIV-1 (RF) [1] (setting [6]), with HIV-1 (RF) [1] (setting [7]) and in the series with HIV-1 (RF) [1] (setting [8]) was -6 throughout. In the series on HIV-1 (RF) [1] (HIV-1 (RF), C8166 cells), the “effect against HIV replication” value is listed as “ineffective against HIV replication”. In addition, the “Inhibition of HIV-1 (RF), live cell (C8166) reduction of MTT, estimated visually” value in the series on HIV-1 (RF) [2] (10 ug/ml) is given as “-”.

With dextrin 3-sulphate, the “inhibitory concentration (minimum concentration at which syncytia formation was <10% that of controls)” value in the series with IIIb was 50 µg/µL; with RF it was 5 µg/µL; in the series with RUT, 50 µg/µL; with CBL20, above 50 µg/µL. For the same compound, in the series with RF (compared with dextran sulphate (MW 8,000)), the “effectiveness against RF” value is given as “more effective than dextran sulphate against RF”. Also, the “anti-coagulant activity in words” value in the series with Bovine Thrombin is on record as “least anti-coagulant”. The “anti-HIV activity in words” value with HIV-1 [5] is “relatively poor anti-HIV activity, by comparison with dextrin 2- and 6-sulphates”.

Turning to dextrin 2-sulphate, the “inhibition (reduction of the infectious titre)” value with HIV-1 (RF) [1] (1 ug/ml, HIV-1 (RF), C8166 cells) was 2 logs. Also, the “Final dilution … (logarithm to the base 10)” value was -4 in the series on HIV-1 (RF) [1] (setting [7]), -2 in the series with HIV-1 (RF) [1] (setting [8]) and -2 with HIV-1 (RF) [1] (setting [9]). In addition, the “reduction of the infectious titre” value in the series with HIV-1 (RF) [1] (setting [8]) is given as 3 logs. Also, the “decrease in infectivity titre” value in the series with HIV-1 (RF) [1] (10 ug/ml, C8166 cells) is recorded as 5 log units; in the series with HIV-1 (RF) [1] (50 ug/ml, C8166 cells) it was 6 log units; with HIV-1 IIIB (10 ug/ml), 3 log units; in the series on HIV-1 IIIB (50 ug/ml) it was 5 log units; in the series on HIV-1 CBL-4 (10 ug/ml) it was 0 log units; in the series with HIV-1 CBL-4 (50 ug/ml), 4 log units. For the same compound, in the series on HIV-1 (RF) [1] (compared with AZT and dextran sulphate), the “inhibition of syncytial induction on C8166 cells” value is given as “inhibits syncytial induction on C8166 cells with greater effect than either AZT or dextran sulphate”. Moreover, the “Inhibition of HIV-1 (RF), live cell (C8166) reduction of MTT, estimated visually” value in the series on HIV-1 (RF) [2] (1.0 ug/ml) and in the series on HIV-1 (RF) [2] (10 ug/ml) was “-” throughout. For the same compound, the “inhibitory concentration (minimum concentration at which syncytia formation was <10% that of controls)” value worked out at 5 µg/µL with IIIb, 5 µg/µL with RF, 5 µg/µL with RUT and 50 µg/µL in the series with CBL20. For the same compound, the “anti-coagulant activity in words” value with Bovine Thrombin is “least anti-coagulant”. Also, in the series on HIV-1 [5], the “anti-HIV activity in words” value is given as “about the same activity against the HIV-1 virus as the dextrin 6sulphate”. Also, in the series on HIV-1 [4], the overall effectiveness result is listed as “overall greater effectiveness”.
